Experimental data: patent US20070020183A1, “Perfluoroalkyl-containing complexes, process for their production as well as their use” (priority 2005, published 2007)

How the values were obtained:
[1] = Excretion after intravenous administration in rats (ICP-AES); format: in vivo; conditions: i.v., 50 μmol of total gadolinium/kg of body weight, 14 days after administration
Source text: After intravenous administration of 50 μmol of total gadolinium/kg of body weight of the gadolinium complexes (I-X) in rats (n=3), the metal content was l determined in fractions up to 14 days after administration by means of atomic emission spectrometry (ICP-AES) in the excretion media of urine and feces, as well as in the body (the rest of the body).

mice = test: Acute toxicity after one-time intravenous administration in mice; format: in vivo; conditions: one-time i.v., observation period of 7 days, determined preliminarily
Procedure: After intravenous administration of the gadolinium complexes (I-X) in mice (n=3; rate of injection: 2 ml/min), the acute systemic compatibility (LD50) was determined preliminarily. In each case, several dosages with an observation period of 7 days were examined. The acute toxicities that are to be expected can be seen in Table 1.

[2] = Plasma kinetics after intravenous administration in rats (ICP-AES); format: in vivo; conditions: i.v., 50 μmol of total gadolinium/kg of body weight
Procedure: After intravenous administration of 50 μmol of total gadolinium/kg of body weight of the gadolinium complexes (I-X) in rats (n=3), blood samples were taken via a catheter in the common carotid artery at different points in time ([…] to 24 hours p.i.), the metal content was determined by means of atomic emission spectrometry (ICP-AES) and converted to plasma values via a conversion factor (0.625). The elimination half-life was calculated by means of special software (WinNonlin) from the plasma concentrations.

[3] = Relaxivity in water (NMR pulse spectrometer Minispec PC 20); format: physicochemical; conditions: 40° C., 0.47 T
Procedure: The T1 and T2 relaxation times of water and plasma (from cows) with increasing concentrations of the gadolinium complexes (I-XIII) contained therein were determined at 40° C. with use of an NMR pulse spectrometer (Minispec PC 20) at 0.47 T, and the relaxivity was determined.

arteriosclerotic plaque = test: MRT visualization of arteriosclerotic plaque; format: in vivo, Watanabe rabbits (WHHL rabbits); conditions: WHHL rabbits, i.v. 50 μmol or 100 μmol of Gd/kg, 6 or 24 hours, T1-weighted IR-TFL; not in vascular wall of healthy control animals
Procedure: The pictures of FIG. 2 show MR images of the aorta 6 or 24 hours after intravenous administration of 50 μmol or 100 μmol of Gd/kg of body weight of gadolinium complex I (title substance of Example 1f), gadolinium complex IV (title substance of Example 11e), and gadolinium complex VIII (title substance of Example 16c) in Watanabe rabbits (WHHL rabbits; genetically-induced arteriosclerosis) and in control animals without arteriosclerosis (white New Zealands). […] The localization of the plaque, especially in the aortic arch as well as in the vascular passages, was confirmed by means of Sudan-3 staining. With this test, the suitability of the compounds according to the invention as markers for arteriosclerotic plaque could be shown.

[4] = system: iliac lymph nodes and i.m.-implanted VX2 tumors; test: MRT visualization of lymph node metastases and primary tumors in VX2-tumor-carrying rabbits; format: in vivo; conditions: rabbits with VX2 tumors, i.v. 50 μmol of Gd/kg
Procedure: The pictures of FIG. 1 show MR images of iliac lymph nodes precontrast as well as up to 24 hours after intravenous administration of 50 μmol of Gd/kg of body weight of gadolinium complex VIII (title substance of Example 16c) in rabbits with i.m.-implanted VX2 tumors. […] Zones where there was no signal rise within the lymph node were diagnosed as metastases and confirmed histologically (H/E staining of the lymph node sections).
At later times (24 hours p.i.), this enhancement also propagates toward the center of the tumor.

| Compound | Body Retention 14 days [1] | LD50 Mouse (mice) | Elimination Half-Life of Blood [2] | Gd Content of Blood 24 Hours p.i. [2] | Relaxivity R1(w) [3] | MR signal in the arteriosclerotic plaque (arteriosclerotic plaque) | MR signal in healthy lymph node tissue ([4]; T1-weighted turbo-spin-echo, 15 to 60 minutes p.i.) | MR enhancement in the primary tumor ([4]; immediately after administration, especially in the periphery) |
| --- | --- | --- | --- | --- | --- | --- | --- | --- |
| COC[C@H]1O[C@H](OCC(=O)NC(CCCCNC(=O)CNC(=O)C(C)N2CCN(CC(=O)[O-])CCN(CC(=O)[O-])CCN(CC(=O)[O-])CC2)C(=O)N(C)CCC(F)(F)C(F)(F)C(F)(F)C(F)(F)C(F)(F)C(F)(F)C(F)(F)C(F)(F)F)[C@@H](OC)[C@@H](OC)[C@@H]1OC.[Gd+3] (stereo partly drawn) [Gadolinium complex VII, Gadolinium complex of 6-N-[1,4,7-tris-(carboxylatomethyl)-1,4,7,10-tetraazacyclododecane-10-N-(pentanoyl-3-aza-4-oxo-5-methyl-5-yl)]-2-N-[1-O-α-d-carbonylmethyl-(2,3,4,6-tetra-O-methyl)mannopyranose]-L-lysine-[(1H,1H,2H,2H-perfluorodecyl)-methyl]-amide] | 5.4% | ≦15 mmol/kg | 5.4 h | 1.2% | R1(w): 14.7 l/(mmol * s) | – | – | – |
| COCCN(CCC(F)(F)C(F)(F)C(F)(F)C(F)(F)C(F)(F)C(F)(F)C(F)(F)C(F)(F)F)C(=O)[C@H](CCCCNC(=O)CNC(=O)C(C)N1CCN(CC(=O)[O-])CCN(CC(=O)[O-])CCN(CC(=O)[O-])CC1)NC(=O)CO[C@H]1O[C@H](CO)[C@@H](O)[C@H](O)[C@@H]1O.[Gd+3] (stereo partly drawn) [Gadolinium complex V, Gadolinium complex of 6-N-[1,4,7-tris-(carboxylatomethyl)-1,4,7,10-tetraazacyclododecane-10-N-(pentanoyl-3-aza-4-oxo-5-methyl-5-yl)]-2-N-(1-O-α-d-carbonylmethylmannopyranose)-L-lysine-N-(2-methoxyethyl)-N-(1H,1H,2H,2H-perfluorodecyl)-amide] | 0.0% | 15 mmol/kg | 6.7 h | 2.1% | R1(w): 18.3 l/(mmol * s) | – | – | – |
| CC(C(=O)NCC(=O)N[C@@H](CCCCNC(=O)CO)C(=O)NCCCC(F)(F)C(F)(F)C(F)(F)C(F)(F)C(F)(F)C(F)(F)C(F)(F)C(F)(F)F)N1CCN(CC(=O)[O-])CCN(CC(=O)[O-])CCN(CC(=O)[O-])CC1.[Gd+3] (stereo partly drawn) [Gadolinium complex IX, Gadolinium complex of 2-N-[1,4,7-tris-(carboxylatomethyl)-1,4,7,10-tetraazacyclododecane-10-N-(pentanoyl-3-aza-4-oxo-5-methyl-5-yl)]-6-N-(2-hydroxyacetyl)-L-lysine-[(1H,1H,2H,2H-perfluorodecyl)-methyl]-amide] | 0.2% | >10 mmol/kg | 4.3 h | 0.5% | R1(w): 18.8 l/(mmol * s) | – | – | – |
| CC(C(=O)NCC(=O)NCCCC[C@H](NC(=O)CO[C@H]1O[C@H](CO)[C@@H](O)[C@H](O)[C@@H]1O)C(=O)NCCCC(F)(F)C(F)(F)C(F)(F)C(F)(F)C(F)(F)C(F)(F)F)N1CCN(CC(=O)[O-])CCN(CC(=O)[O-])CCN(CC(=O)[O-])CC1.[Gd+3] (stereo partly drawn) [Gadolinium complex II, Gadolinium complex of 6-N-[1,4,7-tris-(carboxylatomethyl)-1,4,7,10-tetraazacyclododecane-10-N-(pentanoyl-3-aza-4-oxo-5-methyl-5-yl)]-2-N-(1-O-α-d-carbonylmethylmannopyranose)-L-lysine-[(1H,1H,2H,2H-perfluorooctyl)-methyl]-amide] | 0.0% | 10 mmol/kg | 0.9 hour^ hours | 0.0% | R1(w): 5.7 l/(mmol * s) | – | – | – |
| CC(C(=O)NCC(=O)NCCCC[C@H](NC(=O)CO[C@H]1O[C@H](CO)[C@@H](O)[C@H](O)[C@@H]1O)C(=O)NCCCOCCC(F)(F)C(F)(F)C(F)(F)C(F)(F)C(F)(F)C(F)(F)C(F)(F)C(F)(F)F)N1CCN(CC(=O)[O-])CCN(CC(=O)[O-])CCN(CC(=O)[O-])CC1.[Gd+3] (stereo partly drawn) [Gadolinium complex III, Gadolinium complex of 6-N-[1,4,7-tris-(carboxylatomethyl)-1,4,7,10-tetraazacyclododecane-10-N-(pentanoyl-3-aza-4-oxo-5-methyl-5-yl)]-2-N-(1-O-α-d-carbonylmethylmannopyranose)-L-lysine-[(1H,1H,2H,2H,4H,4H,5H,5H-3-oxa-perfluorotridecyl)-methyl]-amide] | 1.5% | ≧10 mmol/kg | 6.2 h | 1.6% | R1(w): 17.8 l/(mmol * s) | – | – | – |
| CC(C(=O)NCC(=O)N[C@@H](CCCCNC(=O)CO[C@H]1O[C@H](CO)[C@@H](O)[C@H](O)[C@@H]1O)C(=O)N(C)CCC(F)(F)C(F)(F)C(F)(F)C(F)(F)C(F)(F)C(F)(F)C(F)(F)C(F)(F)F)N1CCN(CC(=O)[O-])CCN(CC(=O)[O-])CCN(CC(=O)[O-])CC1.[Gd+3] (stereo partly drawn) [Gadolinium complex VIII, Gadolinium complex of 2-N-[1,4,7-tris-(carboxylatomethyl)-1,4,7,10-tetraazacyclododecane-10-N-(pentanoyl-3-aza-4-oxo-5-methyl-5-yl)]-6-N-(1-O-α-d-carbonylmethylmannopyranose)-L-lysine-[(1H,1H,2H,2H-perfluorodecyl)-methyl]-amide] | 0.0% | ≧10 mmol/kg | 4.3 h | 0.5% | R1(w): 20.6 l/(mmol * s) | strong signal rise | strong signal rise | clear enhancement |
| CC(C(=O)NCC(=O)NCCCC[C@H](NC(=O)COCC(CO)(CO)CO)C(=O)NCCCC(F)(F)C(F)(F)C(F)(F)C(F)(F)C(F)(F)C(F)(F)C(F)(F)C(F)(F)F)N1CCN(CC(=O)[O-])CCN(CC(=O)[O-])CCN(CC(=O)[O-])CC1.[Gd+3] (stereo partly drawn) [Gadolinium complex VI, Gadolinium complex of 6-N-[1,4,7-tris-(carboxylatomethyl)-1,4,7,10-tetraazacyclododecane-10-N-(pentanoyl-3-aza-4-oxo-5-methyl-5-yl)]-2-N-[(3-hydroxy-2,2-dihydroxymethylpropoxy)-acetyl]-L-lysine-[(1H,1H,2H,2H-perfluorodecyl)-methyl]-amide] | 0.0% | >10 mmol/kg | 7.7 h | 2.6% | R1(w): 16.9 l/(mmol * s) | – | – | – |
| COCCN(CCOCCC(F)(F)C(F)(F)C(F)(F)C(F)(F)C(F)(F)C(F)(F)C(F)(F)C(F)(F)F)C(=O)[C@H](CCCCNC(=O)CNC(=O)C(C)N1CCN(CC(=O)[O-])CCN(CC(=O)[O-])CCN(CC(=O)[O-])CC1)NC(=O)CO[C@H]1O[C@H](CO)[C@@H](O)[C@H](O)[C@@H]1O.[Gd+3] (stereo partly drawn) [Gadolinium complex IV, Gadolinium complex of 6-N-[1,4,7-tris-(carboxylatomethyl)-1,4,7,10-tetraazacyclododecane-10-N-(pentanoyl-3-aza-4-oxo-5-methyl-5-yl)]-2-N-(1-O-α-d-carbonylmethylmannopyranose)-L-lysine-N-(2-methoxyethyl)-N-(1H,1H,2H,2H,4H,4H,5H,5H-3-oxa-perfluorotridecyl)-amide] | 2.6% | ≧15 mmol/kg | 5.3 h | 1.8% | R1(w): 16.6 l/(mmol * s) | strong signal rise | – | – |
